Assay results published in the supplement of paper PMC10307832.

Tests used:
Assay in all cases: relative viability (nuclei count vs DMSO), 5 days (fraction); higher = more cells survive
[1] = compound: C1CNCCC1C2=CC(=NN2)C3=CC=NC=C3
How it was run: (§1)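 Nuclei counted with MetaXpress define viability as the ratio of treated to vehicle wells, given as a median across plates. The lung cancer cell lines were in 1536-well plates, pinned with five √10-spaced library-drug doses and imaged at 4× after 5 days and Hoechst staining. Plates passed with control CV below 25% and at least one doubling.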

[2] = compound: C[C@@H](N)c1ccc(C(=O)Nc2ccnc3[nH]ccc23)cc1
How it was run: as §1

Tanzisertib = compound: O[C@H]1CC[C@H](Nc2ncc3nc(Nc4c(F)cc(F)cc4F)n([C@H]4CCOC4)c3n2)CC1 [Tanzisertib]
How it was run: as §1

[3] = compound: C[C@@H](N)c1ccc(C(=O)Nc2ccnc3[nH]ccc23)cc1 + Cc1nc(Nc2ncc(C(=O)Nc3c(C)cccc3Cl)s2)cc(N2CCN(CCO)CC2)n1 [Dasatinib] (partner 0.075 µM)
How it was run: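 Dosing by pin tool came one day after lung cancer cell lines were seeded in 1536-well plates, using either one drug or a fixed anchor-drug dose plus five library-drug doses (not always all listed) in √10 steps. After 5 days, nuclei were counted on 4× images. Relative viability is treated-well nuclei count divided by vehicle-well nuclei count, and values are medians of duplicate plates.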

| Cell Line | relative viability ([1]; 0.08 µM) | relative viability ([1]; 0.8 µM) | relative viability ([1]; 2.53 µM) | relative viability ([1]; 8 µM) | relative viability ([2]; 0.04 µM) | relative viability ([2]; 0.1265 µM) | relative viability ([2]; 0.4 µM) | relative viability ([2]; 1.265 µM) | relative viability ([2]; 4 µM) | relative viability (Tanzisertib; 0.08 µM) | relative viability (Tanzisertib; 0.253 µM) | relative viability (Tanzisertib; 0.8 µM) | relative viability (Tanzisertib; 2.53 µM) | relative viability (Tanzisertib; 8 µM) | relative viability ([3]; first compound 0.04 µM) | relative viability ([3]; first compound 0.1265 µM) | relative viability ([3]; first compound 0.4 µM) | relative viability ([3]; first compound 1.265 µM) | relative viability ([3]; first compound 4 µM) |
| --- | --- | --- | --- | --- | --- | --- | --- | --- | --- | --- | --- | --- | --- | --- | --- | --- | --- | --- | --- |
| HCC-78 | 1.04 | 0.706 | 1 | 1.03 | 1.23 | 0.933 | 1.23 | 0.72 | 0.92 | 1.06 | 1.02 | 0.986 | 0.97 | 0.682 | 0.556 | 0.376 | 0.51 | 0.388 | 0.614 |
| HCC-366 | 0.969 | 0.995 | 1.01 | 0.999 | 1.01 | 1.04 | 1.09 |  | 1.03 | 0.981 | 1.03 | 1.01 | 0.993 | 0.487 | 0.544 | 0.621 | 0.483 |  | 0.508 |
| HCC-827 | 1.05 | 1.04 | 1.06 | 1.01 | 0.901 | 1.13 | 1.05 | 1.05 | 0.938 | 1.07 | 1.05 | 1.03 | 1.02 | 0.663 | 0.411 | 0.466 | 0.433 | 0.46 | 0.267 |
| HOP-62 | 1.09 | 1.11 | 1.05 | 1.02 | 0.957 | 0.949 | 1.03 | 0.884 | 0.899 | 1.1 | 1.03 | 1 | 1.12 | 1.03 | 0.435 | 0.632 | 0.617 | 0.515 | 0.303 |
| IA-LM | 1 | 1.01 | 0.996 | 1.02 | 1.13 | 1.1 | 1.4 | 1.16 | 1.12 | 1.08 | 0.989 | 0.989 | 0.96 | 0.94 |  |  |  |  |  |
| LC-2-ad | 0.978 | 1.09 | 1 | 0.964 | 0.916 | 0.916 | 1.02 | 0.719 | 0.838 | 1.1 | 1.03 | 1.09 | 1.03 | 0.506 | 0.717 | 0.639 | 0.814 |  | 0.389 |
| LCLC-97TM1 | 1.05 | 0.884 | 1.33 | 0.947 | 1.18 | 0.868 | 1.16 | 0.843 | 0.983 | 1.03 | 0.997 | 1.03 | 0.941 | 0.59 | 0.989 | 0.905 | 0.984 | 0.879 | 0.794 |
| LCLC-103H | 1.06 | 0.873 | 0.919 | 0.98 | 1.01 | 0.964 | 0.971 | 0.917 | 0.81 | 1.1 | 1.05 | 1.12 | 1 | 1.04 | 0.363 | 0.506 | 0.474 | 0.285 | 0.279 |
| LK-2 | 0.729 | 1.02 | 1.07 | 1.05 | 1.32 | 0.863 | 1.04 | 0.929 | 1.21 | 1.16 | 1.06 | 1 | 1.03 | 1.03 | 0.375 |  | 0.339 |  | 0.424 |
| LOU-NH91 | 1.1 | 1.02 | 1.05 | 0.945 | 0.811 | 0.972 | 0.861 | 0.607 | 0.755 | 0.995 | 0.988 | 0.909 | 0.995 | 0.657 | 0.425 | 0.571 | 0.527 | 0.492 | 0.394 |
| LU99A | 0.948 | 1.01 | 1.04 | 0.946 |  | 0.989 | 0.96 | 0.924 | 0.692 | 1.1 | 1.03 | 1.03 | 1.11 | 0.938 |  | 0.507 | 0.536 | 0.495 | 0.508 |
| LXF-289 | 1.04 | 1.05 | 0.991 | 1 | 1.03 | 1 | 1.03 | 1.05 | 0.902 | 1.08 | 0.986 | 1.07 | 1.05 | 1.16 | 0.105 | 0.234 | 0.185 | 0.11 | 0.116 |
| NCI-H23 | 0.866 | 0.988 | 1.26 | 1.14 | 0.895 | 0.999 | 1.12 |  | 0.826 | 1.18 | 1.01 | 1.06 | 0.998 | 0.43 | 0.77 | 0.736 | 0.862 |  | 0.76 |
| NCI-H322M | 0.93 | 0.923 | 0.92 | 1.02 | 1.14 | 1.12 | 1.14 |  | 1.25 | 1.06 | 0.969 | 1.02 | 0.919 | 0.867 | 0.242 | 0.253 | 0.266 |  | 0.318 |
| NCI-H358 | 0.902 | 0.994 | 1.02 | 0.822 | 0.912 | 0.925 | 0.921 | 0.86 | 0.754 | 1.12 | 0.912 | 0.865 | 0.938 | 0.581 | 0.173 | 0.193 | 0.169 | 0.165 | 0.18 |
| NCI-H441 | 0.908 | 1.12 | 1.06 | 0.912 | 1.05 | 1.15 | 1.31 | 0.906 | 0.827 | 1.09 | 0.888 | 0.93 | 0.887 | 0.891 | 0.671 | 0.739 | 0.867 |  | 0.667 |
| NCI-H1299 | 1.04 | 1.05 | 0.978 | 0.976 | 0.967 | 0.985 | 0.963 | 0.955 | 0.862 | 1.06 | 1.03 | 1.01 | 0.998 | 1.08 |  |  |  |  |  |
| NCI-H1648 | 0.979 | 0.826 | 0.754 | 0.97 | 1.44 | 1.21 | 1.59 | 1.82 | 1.37 | 0.97 | 1.14 | 0.926 | 0.97 | 0.667 |  |  |  |  |  |
| NCI-H1703 | 0.874 | 1.2 | 1.01 | 0.94 | 0.794 | 0.863 | 0.757 |  | 0.906 | 1.14 | 0.899 | 0.843 | 0.717 | 0.719 |  |  |  |  |  |
